Measurements: ChEMBL document CHEMBL3351341, “Discovery of a potent and selective EGFR inhibitor (AZD9291) of both sensitizing and T790M resistance mutations that spares the wild type form of the receptor” (J Med Chem, 2014)
In brackets after ≈: the same amount, converted by molar mass. Each block holds one compound with its values, some of them ahead of it.

Columns and labels:
[1] = target: Epidermal growth factor receptor (Homo sapiens, UniProt P00533, L858R/T790M); assay: Inhibition of EGFR L858R/T790M double mutant phosphorylation in human NCI-H1975 cells after 2 hrs by fluorescence assay; assay type: cell-based
[2] = target: Epidermal growth factor receptor (Homo sapiens, UniProt P00533, EX19DEL); assay: Inhibition of EGFR exon 19 deletion activating mutant phosphorylation in human PC9 cells after 2 hrs by fluorescence assay; assay type: cell-based, PC-9
[3] = target: Epidermal growth factor receptor (Homo sapiens, UniProt P00533); assay: Inhibition of wild type EGFR phosphorylation in human LoVo cells after 2 hrs by fluorescence assay; assay type: cell-based
[4] = Intrinsic clearance in mouse hepatocytes measured per 10^6 cells; assay type: ADME, cell-based, Hepatocyte; conditions: read-out: CLH
[5] = Thermodynamic solubility of the compound at pH 7.4; assay type: physicochemical; conditions: buffer, read-out: Therm_solubility
[6] = target: T1, Insulin-like growth factor 1 receptor (Homo sapiens, UniProt P08069); assay: Inhibition of IGF1R (unknown origin)
[7] = Lipophilicity, log D of the compound at pH 7.4; assay type: physicochemical; conditions: buffer
NCI-H1975 [8] = assay: Cytotoxicity against human NCI-H1975 cells harboring EGFR L858R/[…] double mutant assessed as growth inhibition after 72 hrs by SYTOX green nucleic acid staining-based fluorescence assay; assay type: functional; conditions: Homo sapiens, NCI-H1975, 72 h
[9] = Cytotoxicity against human PC9 cells harboring EGFR exon 19 deletion activating mutant assessed as growth inhibition after 72 hrs by SYTOX green nucleic acid staining-based fluorescence assay; assay type: functional, PC-9; conditions: Homo sapiens, PC-9, 72 h
[10] = Cytotoxicity against human Calu3 cells assessed as growth inhibition after 72 hrs by SYTOX green nucleic acid staining-based fluorescence assay; assay type: functional, Calu-3; conditions: Homo sapiens, Calu-3, 72 h
[11] = Unbound fraction in human plasma; assay type: ADME, cell-free
[12] = Fraction unbound in Han Wistar rat plasma; assay type: ADME, cell-free
[13] = target: Calcium/calmodulin-dependent protein kinase kinase 2 (Homo sapiens) (UniProt Q96RR4); assay: Inhibition of CAMKKbeta (unknown origin) at 1 uM relative to control
[14] = target: T1, Insulin-like growth factor 1 receptor; assay: Inhibition of IGF1R (unknown origin) at 1 uM relative to control
[15] = target: Serine/threonine-protein kinase Chk2 (Homo sapiens) (UniProt O96017); assay: Inhibition of CHK2 (unknown origin) at 1 uM relative to control
Insulin receptor [16] = target: T2, Insulin receptor (Homo sapiens, UniProt P06213); assay: Inhibition of INSR (unknown origin) at 1 uM relative to control
Mus musculus [17] = assay: Inhibition of EGFR exon 19 deletion activating mutant phosphorylation in human PC9 cells xenografted in SCID mouse at 10 mg/kg, po measured 1 hr post dose; assay type: functional; conditions: PC-9, 1 h
Mus musculus [18] = assay: Inhibition of EGFR exon 19 deletion activating mutant phosphorylation in human PC9 cells xenografted in SCID mouse at 10 mg/kg, po measured 6 hrs post dose; assay type: functional; conditions: PC-9, 6 h
Mus musculus [19] = assay: Inhibition of EGFR exon 19 deletion activating mutant phosphorylation in human PC9 cells xenografted in SCID mouse at 10 mg/kg, po measured 16 hrs post dose; assay type: functional; conditions: PC-9, 16 h
Mus musculus [20] = assay: Inhibition of EGFR exon 19 deletion activating mutant phosphorylation in human PC9 cells xenografted in SCID mouse at 10 mg/kg, po measured 24 hrs post dose; assay type: functional; conditions: PC-9, 24 h
Mus musculus [21] = assay: Inhibition of EGFR L858R/[…] double mutant phosphorylation in human NCI-H1975 cells xenografted in SCID mouse at 10 mg/kg, po measured 1 hr post dose; assay type: functional; conditions: NCI-H1975, 1 h
Mus musculus [22] = assay: Inhibition of EGFR L858R/[…] double mutant phosphorylation in human NCI-H1975 cells xenografted in SCID mouse at 10 mg/kg, po measured 6 hrs post dose; assay type: functional; conditions: NCI-H1975, 6 h
Mus musculus [23] = assay: Inhibition of EGFR L858R/[…] double mutant phosphorylation in human NCI-H1975 cells xenografted in SCID mouse at 10 mg/kg, po measured 16 hrs post dose; assay type: functional; conditions: NCI-H1975, 16 h
Mus musculus [24] = assay: Inhibition of EGFR L858R/[…] double mutant phosphorylation in human NCI-H1975 cells xenografted in SCID mouse at 10 mg/kg, po measured 24 hrs post dose; assay type: functional; conditions: NCI-H1975, 24 h
Mus musculus [25] = assay: Inhibition of EGFR L858R/[…] double mutant phosphorylation in human NCI-H1975 cells xenografted in SCID mouse at 10 mg/kg, po measured 30 hrs post dose; assay type: functional; conditions: NCI-H1975, 30 h
NCI-H1975 [26] = assay: Antitumor activity against human NCI-H1975 cells harboring EGFR L858R/[…] double mutant xenografted in SCID mouse assessed as tumor growth inhibition at 10 mg/kg/day, po qd for 7 days relative to control; assay type: functional; conditions: Mus musculus, NCI-H1975, 168 h, read-out: TGI
[27] = Antitumor activity against human PC9 cells harboring EGFR exon 19 deletion activating mutant xenografted in SCID mouse assessed as tumor growth inhibition at 10 mg/kg/day, po qd for 7 days relative to control; assay type: functional, PC-9; conditions: Homo sapiens, PC-9, 168 h, read-out: TGI
A-431 = assay: Antitumor activity against human A431 cells xenografted in SCID mouse assessed as tumor growth inhibition at 10 mg/kg/day, po qd for 7 days relative to control; assay type: functional; conditions: Mus musculus, A-431, 168 h, read-out: TGI
Insulin receptor [28] = target: T2, Insulin receptor; assay: Inhibition of INSR (unknown origin)

T2 sequence (P06213 28-758 limits assumed): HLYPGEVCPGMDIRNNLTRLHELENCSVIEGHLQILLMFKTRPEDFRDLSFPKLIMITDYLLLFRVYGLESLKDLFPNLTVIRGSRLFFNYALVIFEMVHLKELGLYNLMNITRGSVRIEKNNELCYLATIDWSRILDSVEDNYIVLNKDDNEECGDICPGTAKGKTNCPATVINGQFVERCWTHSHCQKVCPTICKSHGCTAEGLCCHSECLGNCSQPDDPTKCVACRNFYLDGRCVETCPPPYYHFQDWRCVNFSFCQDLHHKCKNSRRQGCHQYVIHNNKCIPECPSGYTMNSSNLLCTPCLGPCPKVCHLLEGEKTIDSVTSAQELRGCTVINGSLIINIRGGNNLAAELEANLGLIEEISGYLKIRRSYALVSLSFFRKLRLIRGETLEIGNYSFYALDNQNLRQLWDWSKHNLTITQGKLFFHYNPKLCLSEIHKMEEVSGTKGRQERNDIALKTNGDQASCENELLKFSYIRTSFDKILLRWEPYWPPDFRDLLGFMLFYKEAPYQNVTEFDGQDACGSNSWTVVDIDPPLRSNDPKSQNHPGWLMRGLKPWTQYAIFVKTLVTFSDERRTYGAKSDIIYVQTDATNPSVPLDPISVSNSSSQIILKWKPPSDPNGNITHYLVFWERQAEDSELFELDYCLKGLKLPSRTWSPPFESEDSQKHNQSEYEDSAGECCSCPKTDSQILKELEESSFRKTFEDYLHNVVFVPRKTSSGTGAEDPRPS
T2 sequence (P06213 763-1382 limits assumed): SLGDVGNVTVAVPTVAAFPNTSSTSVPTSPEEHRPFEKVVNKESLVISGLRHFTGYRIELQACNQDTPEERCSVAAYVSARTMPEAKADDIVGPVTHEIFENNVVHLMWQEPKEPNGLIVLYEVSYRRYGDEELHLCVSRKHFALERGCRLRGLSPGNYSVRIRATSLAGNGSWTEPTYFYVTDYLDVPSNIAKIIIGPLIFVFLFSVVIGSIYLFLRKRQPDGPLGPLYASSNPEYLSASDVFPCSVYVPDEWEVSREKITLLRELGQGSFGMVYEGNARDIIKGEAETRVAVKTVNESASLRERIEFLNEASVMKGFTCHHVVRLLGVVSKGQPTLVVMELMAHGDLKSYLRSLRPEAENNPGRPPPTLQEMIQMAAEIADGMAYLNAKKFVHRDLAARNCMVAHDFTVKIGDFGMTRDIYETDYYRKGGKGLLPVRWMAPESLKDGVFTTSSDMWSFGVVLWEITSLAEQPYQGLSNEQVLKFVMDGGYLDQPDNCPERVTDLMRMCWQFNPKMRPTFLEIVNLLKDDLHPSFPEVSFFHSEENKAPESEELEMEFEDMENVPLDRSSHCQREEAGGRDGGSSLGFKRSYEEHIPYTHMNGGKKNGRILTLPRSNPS
T1 sequence (P08069 31-736 limits assumed): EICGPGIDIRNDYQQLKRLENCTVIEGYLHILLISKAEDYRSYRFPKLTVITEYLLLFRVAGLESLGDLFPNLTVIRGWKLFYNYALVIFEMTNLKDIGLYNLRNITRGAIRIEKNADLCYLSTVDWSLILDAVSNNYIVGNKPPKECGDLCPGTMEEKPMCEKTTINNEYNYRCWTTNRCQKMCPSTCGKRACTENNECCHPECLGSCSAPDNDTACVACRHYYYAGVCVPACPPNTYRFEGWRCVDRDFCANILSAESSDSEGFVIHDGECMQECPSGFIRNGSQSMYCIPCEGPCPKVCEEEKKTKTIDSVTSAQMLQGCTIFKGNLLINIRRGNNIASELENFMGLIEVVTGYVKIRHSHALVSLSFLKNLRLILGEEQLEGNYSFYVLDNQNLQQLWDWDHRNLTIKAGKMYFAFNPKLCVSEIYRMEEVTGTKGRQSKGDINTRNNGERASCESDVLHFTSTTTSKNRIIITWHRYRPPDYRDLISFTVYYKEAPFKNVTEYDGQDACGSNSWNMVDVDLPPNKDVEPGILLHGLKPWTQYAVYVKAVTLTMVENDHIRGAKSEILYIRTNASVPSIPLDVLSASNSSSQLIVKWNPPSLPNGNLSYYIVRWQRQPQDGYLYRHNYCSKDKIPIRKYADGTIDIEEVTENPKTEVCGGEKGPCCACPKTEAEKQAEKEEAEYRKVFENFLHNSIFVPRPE
T1 sequence (P08069 741-1367 limits assumed): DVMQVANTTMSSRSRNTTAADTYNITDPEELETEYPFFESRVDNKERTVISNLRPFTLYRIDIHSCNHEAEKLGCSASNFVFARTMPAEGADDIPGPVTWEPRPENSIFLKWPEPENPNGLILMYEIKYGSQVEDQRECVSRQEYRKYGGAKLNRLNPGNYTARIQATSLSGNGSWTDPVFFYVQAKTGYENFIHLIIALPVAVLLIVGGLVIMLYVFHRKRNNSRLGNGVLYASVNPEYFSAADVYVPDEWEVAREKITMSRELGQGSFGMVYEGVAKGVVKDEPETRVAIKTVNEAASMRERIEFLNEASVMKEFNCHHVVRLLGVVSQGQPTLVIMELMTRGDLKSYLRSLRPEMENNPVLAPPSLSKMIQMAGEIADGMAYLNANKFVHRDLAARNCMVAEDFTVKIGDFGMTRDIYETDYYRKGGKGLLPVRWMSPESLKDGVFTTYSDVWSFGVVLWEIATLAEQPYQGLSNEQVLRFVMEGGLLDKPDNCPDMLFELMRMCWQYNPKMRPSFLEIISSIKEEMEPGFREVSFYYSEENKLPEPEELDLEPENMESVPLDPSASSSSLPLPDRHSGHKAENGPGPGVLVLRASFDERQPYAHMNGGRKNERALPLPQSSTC
Sequence of Calcium/calmodulin-dependent protein kinase kinase 2 (Homo sapiens) (Q96RR4 2-588 limits assumed): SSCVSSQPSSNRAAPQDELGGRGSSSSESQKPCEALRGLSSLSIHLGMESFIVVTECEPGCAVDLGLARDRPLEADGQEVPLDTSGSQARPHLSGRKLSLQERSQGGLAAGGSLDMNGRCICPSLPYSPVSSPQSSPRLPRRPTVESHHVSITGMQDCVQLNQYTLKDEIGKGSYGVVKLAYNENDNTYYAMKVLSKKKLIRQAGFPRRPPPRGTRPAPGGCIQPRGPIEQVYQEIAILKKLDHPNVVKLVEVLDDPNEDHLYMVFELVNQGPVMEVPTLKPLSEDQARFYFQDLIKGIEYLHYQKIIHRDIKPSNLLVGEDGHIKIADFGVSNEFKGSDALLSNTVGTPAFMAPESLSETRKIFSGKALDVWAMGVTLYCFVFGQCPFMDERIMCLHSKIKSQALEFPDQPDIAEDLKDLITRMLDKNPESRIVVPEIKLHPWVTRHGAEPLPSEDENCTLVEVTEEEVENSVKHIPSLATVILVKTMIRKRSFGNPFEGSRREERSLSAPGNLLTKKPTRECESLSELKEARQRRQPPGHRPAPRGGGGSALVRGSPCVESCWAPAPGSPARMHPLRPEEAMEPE
Sequence of Epidermal growth factor receptor (Homo sapiens, UniProt P00533) (P00533 whole entry): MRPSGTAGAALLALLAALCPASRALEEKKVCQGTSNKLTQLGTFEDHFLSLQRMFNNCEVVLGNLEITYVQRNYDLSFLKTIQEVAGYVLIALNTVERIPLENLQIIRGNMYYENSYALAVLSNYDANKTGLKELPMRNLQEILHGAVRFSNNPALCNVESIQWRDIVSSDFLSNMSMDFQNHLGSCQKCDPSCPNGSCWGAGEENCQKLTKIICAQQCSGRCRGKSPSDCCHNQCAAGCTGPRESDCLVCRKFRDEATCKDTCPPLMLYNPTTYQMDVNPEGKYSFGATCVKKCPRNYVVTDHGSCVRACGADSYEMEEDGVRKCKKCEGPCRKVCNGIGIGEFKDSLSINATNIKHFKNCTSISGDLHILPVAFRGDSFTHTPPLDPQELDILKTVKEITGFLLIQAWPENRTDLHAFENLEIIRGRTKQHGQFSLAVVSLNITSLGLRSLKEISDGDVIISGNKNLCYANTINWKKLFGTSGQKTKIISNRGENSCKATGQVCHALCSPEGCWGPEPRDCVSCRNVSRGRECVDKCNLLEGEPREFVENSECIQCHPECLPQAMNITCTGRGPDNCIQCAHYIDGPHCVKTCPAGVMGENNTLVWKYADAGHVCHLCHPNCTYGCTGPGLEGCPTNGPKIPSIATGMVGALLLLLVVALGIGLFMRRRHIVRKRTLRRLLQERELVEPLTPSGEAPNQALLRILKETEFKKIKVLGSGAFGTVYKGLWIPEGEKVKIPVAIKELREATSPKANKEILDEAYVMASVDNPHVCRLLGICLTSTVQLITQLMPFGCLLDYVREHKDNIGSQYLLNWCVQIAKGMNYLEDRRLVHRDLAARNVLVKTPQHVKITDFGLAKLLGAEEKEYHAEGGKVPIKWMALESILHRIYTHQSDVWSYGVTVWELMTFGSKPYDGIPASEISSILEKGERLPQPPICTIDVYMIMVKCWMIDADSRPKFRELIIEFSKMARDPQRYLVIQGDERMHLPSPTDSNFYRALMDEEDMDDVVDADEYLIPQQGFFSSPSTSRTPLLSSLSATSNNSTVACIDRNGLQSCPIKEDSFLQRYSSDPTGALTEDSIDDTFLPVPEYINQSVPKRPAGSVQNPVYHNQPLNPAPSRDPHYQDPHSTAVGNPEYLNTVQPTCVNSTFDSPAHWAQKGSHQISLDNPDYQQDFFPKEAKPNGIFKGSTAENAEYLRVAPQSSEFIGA
Sequence of Serine/threonine-protein kinase Chk2 (Homo sapiens) (O96017 whole entry): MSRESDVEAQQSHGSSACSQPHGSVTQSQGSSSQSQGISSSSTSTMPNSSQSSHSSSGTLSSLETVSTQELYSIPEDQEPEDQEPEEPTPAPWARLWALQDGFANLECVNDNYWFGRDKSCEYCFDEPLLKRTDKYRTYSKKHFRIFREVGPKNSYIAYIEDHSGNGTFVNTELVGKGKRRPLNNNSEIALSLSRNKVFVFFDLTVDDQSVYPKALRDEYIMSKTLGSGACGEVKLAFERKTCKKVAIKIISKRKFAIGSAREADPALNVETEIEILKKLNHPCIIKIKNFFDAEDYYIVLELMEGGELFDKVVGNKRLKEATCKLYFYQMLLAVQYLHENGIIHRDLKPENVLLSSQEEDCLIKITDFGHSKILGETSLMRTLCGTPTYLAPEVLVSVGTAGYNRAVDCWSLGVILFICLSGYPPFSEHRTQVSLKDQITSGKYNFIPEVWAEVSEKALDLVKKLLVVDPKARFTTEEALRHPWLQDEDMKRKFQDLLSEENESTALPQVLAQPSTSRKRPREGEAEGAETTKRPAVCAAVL

IC50 [1]: 0.063 µM
IC50 [2]: 0.015 µM
IC50 [3]: 1.2 µM
hepatocyte CLint [4]: 53 µL/min/1e6 cells
solubility thermodynamic [5]: 828 µM (≈ 400 µg/mL)
IC50 [6]: 0.813 µM
Compound: C=CC(=O)Nc1cc(Nc2nccc(-c3c[nH]c4ccccc34)n2)c(OC)cc1N1CCN(C)CC1

logD [7]: 2.2
Compound: C=CC(=O)Nc1cc(Nc2ncc(Cl)c(-c3cnn4ccccc34)n2)c(OC)cc1N1CCN(C(=O)[C@@H]2CCCCN2)CC1

logD [7]: 1.8
Compound: C=CC(=O)Nc1cc(Nc2ncc(Cl)c(-c3cnn4ccccc34)n2)c(OC)cc1N1CCN(C(=O)CNC)CC1

logD [7]: 3.3
solubility thermodynamic [5]: 75 µM (≈ 39 µg/mL)
IC50 [6]: 0.007 µM
fraction unbound [11]: 0.036
fraction unbound [12]: 0.075
Compound: C=CC(=O)Nc1cc(Nc2ncc(Cl)c(-c3c[nH]c4ccccc34)n2)c(OC)cc1N(C)CCN(C)C
GI50 (NCI-H1975 [8]): 0.002 µM
GI50 [9]: 0.002 µM
GI50 [10]: 0.144 µM

logD [7]: 2
Compound: C=CC(=O)Nc1cc(Nc2ncc(Cl)c(-c3cnn4ccccc34)n2)c(OC)cc1N1CCN(C(=O)N2CCNCC2)CC1

IC50 [6]: 0.196 µM
Compound: C=CC(=O)Nc1cc(Nc2ncc(C)c(-c3cn(C)c4ccccc34)n2)c(OC)cc1N(C)CCN(C)C

IC50 [6]: 0.002 µM
inhibition [13]: 92%
inhibition [14]: 97%
Compound: C=CC(=O)Nc1cc(Nc2ncc(Cl)c(-c3cnn4ccccc34)n2)c(OC)cc1N1CCN(C)CC1

IC50 [6]: 0.004 µM
inhibition [15]: 90%
inhibition [13]: 94%
inhibition [14]: 98%
inhibition (Insulin receptor [16]): 97%
Compound: COc1ccc(NC(=O)/C=C/CN(C)C)cc1Nc1ncc(Cl)c(-c2cnn3ccccc23)n1

IC50 [6]: 0.026 µM
inhibition [14]: 97%
inhibition (Insulin receptor [16]): 98%
IC50 (Insulin receptor [28]): 0.035 µM
Compound: C=CC(=O)Nc1cc(Nc2ncc(Cl)c(-c3cnn4ccccc34)n2)c(OC)cc1N1CC(N(C)C)C1
inhibition in vivo at 10 mg/kg (Mus musculus [17]): 57%
inhibition in vivo at 10 mg/kg (Mus musculus [18]): 85%
inhibition in vivo at 10 mg/kg (Mus musculus [19]): 52%
inhibition in vivo at 10 mg/kg (Mus musculus [20]): 19%
inhibition in vivo at 10 mg/kg (Mus musculus [21]): 37%
inhibition in vivo at 10 mg/kg (Mus musculus [22]): 99%
inhibition in vivo at 10 mg/kg (Mus musculus [23]): 82%
inhibition in vivo at 10 mg/kg (Mus musculus [24]): 79%
inhibition in vivo at 10 mg/kg (Mus musculus [25]): 50%
inhibition in vivo at 10 mg/kg/day (NCI-H1975 [26]): 113%
inhibition in vivo at 10 mg/kg/day [27]: 169%
inhibition in vivo at 10 mg/kg/day (A-431): 16%
